Reference: article PMC8566969, “Comparison of viral RNA–host protein interactomes across pathogenic RNA viruses informs rapid antiviral drug discovery for SARS-CoV-2” (Cell Research, 2021)
Like-named read-outs stand apart in the source and are kept apart here.

Assays:
[1] = tested on: SARS-CoV-2 B.1.351 variant; experiment: microbe, parasite or virus in culture; assay type: cell-based; conditions: Severe acute respiratory syndrome coronavirus 2, Huh-7.5.1, 48 h, read-out: IC50, SARS-CoV-2 B.1.351 in Huh7.5.1 cells
[2] = tested on: SARS-CoV-2 B.1.351 variant
[3] = tested on: SARS-CoV-2 B.1.351 variant; experiment: microbe, parasite or virus in culture; conditions: Severe acute respiratory syndrome coronavirus 2, A549-ACE2, 48 h, read-out: IC50, SARS-CoV-2 B.1.351

SMILES	IC50 [1]	Inhibitory effect in B.1.351-infected cells (in words) [2]	SI (CC50/IC50), SARS-CoV-2 B.1.351 [2]	IC50 [3]
COc1ccc2cc1Oc1ccc(cc1)C[C@H]1c3c(cc4c(c3Oc3cc5c(cc3OC)CCN(C)[C@@H]5C2)OCO4)CCN1C [Cepharanthine]	60 nM	exerted inhibitory effects	128.83	240 nM
COc1cc2c(cc1OC)[C@@H]1C(=O)c3ccc4c(c3O[C@@H]1CO2)C=CC(C)(C)O4 [Deguelin]	–	exerted inhibitory effects	7.44	4670 nM
CNC(=O)c1cc(Oc2ccc(NC(=O)Nc3ccc(Cl)c(C(F)(F)F)c3)cc2)ccn1 [Sorafenib]	–	exerted inhibitory effects	7.6	1700 nM
CN1CCN(CCCN2c3ccccc3Sc3ccc(C(F)(F)F)cc32)CC1 [Trifluoperazine]	–	exerted inhibitory effects	13.25	2790 nM
